Measurements reported in patent US9980943B2, “Methods of treating muscular dystrophy” (BOARD OF REGENTS OF THE NEVADA SYSTEM OF HIGHER EDUCATION, …, priority 2013, dated 2018).

How the values were obtained:
Format in all cases: cell-based, mouse
[1] = test system: α7 integrin (LacZ reporter in α7βgal+/− myoblasts); assay: Myoblast α7+/LacZ integrin FDG assay (Burkin assay in myoblasts, 96-well); settings: α7+/LacZ myoblasts, 96-well
[2] = test system: α7 integrin (LacZ reporter in α7+/LacZ myotubes); assay: Myotube α7 integrin FDG assay (Burkin assay in myotubes, 96-well); settings: myotubes
[3] = test system: β-galactosidase in CMV-LacZ C2C12 myoblasts; assay: CMV-LacZ secondary screen in C2C12 myoblasts (β-Gal stabilizing assay); settings: CMV-LacZ C2C12 myoblasts
Procedure, shortened: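 CMV-LacZ C2C12 line (clonal, FDG-screened); myoblasts/myotubes dosed 0.5–40 μM (0.5, 1, 5, 10, 20, 40 μM); n=2 per point; β-gal stabilization read-out.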

[4] = test system: β-galactosidase in CMV-LacZ C2C12 myotubes; assay: CMV-LacZ secondary screen in C2C12 myotubes (β-Gal stabilizing assay); settings: C2C12 CMV-LacZ myotubes, fold relative to DMSO
Procedure, shortened: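 A secondary screen identifies compounds that stabilize β-gal independently of the native promoter, using CMV-LacZ C2C12 cells. Curves span 0.5–40 μM at six levels, in duplicate.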

| SMILES | Burkin Assay in Myoblasts, signal relative to DMSO ([1]; 0.5 uM) | Burkin Assay in Myoblasts, signal relative to DMSO ([1]; 1 uM) | Burkin Assay in Myoblasts, signal relative to DMSO ([1]; 5 uM) | Burkin Assay in Myoblasts, signal relative to DMSO ([1]; 10 uM) | Burkin Assay in Myoblasts, signal relative to DMSO ([1]; 20 uM) | Burkin Assay in Myoblasts, signal relative to DMSO ([1]; 40 uM) | Burkin Assay in Myotubes, α7 integrin LacZ reporter signal relative to DMSO ([2]; 0.5 uM) | Burkin Assay in Myotubes, α7 integrin LacZ reporter signal relative to DMSO ([2]; 1 uM) | Burkin Assay in Myotubes, α7 integrin LacZ reporter signal relative to DMSO ([2]; 5 uM) | Burkin Assay in Myotubes, α7 integrin LacZ reporter signal relative to DMSO ([2]; 10 uM) | Burkin Assay in Myotubes, α7 integrin LacZ reporter signal relative to DMSO ([2]; 20 uM) | Burkin Assay in Myotubes, α7 integrin LacZ reporter signal relative to DMSO ([2]; 40 uM) | CMV-LACZ in Myoblasts (β-galactosidase activity relative to DMSO) ([3]; 0.5 uM) | CMV-LACZ in Myoblasts (β-galactosidase activity relative to DMSO) ([3]; 1 uM) | CMV-LACZ in Myoblasts (β-galactosidase activity relative to DMSO) ([3]; 5 uM) | CMV-LACZ in Myoblasts (β-galactosidase activity relative to DMSO) ([3]; 10 uM) | CMV-LACZ in Myoblasts (β-galactosidase activity relative to DMSO) ([3]; 20 uM) | CMV-LACZ in Myoblasts (β-galactosidase activity relative to DMSO) ([3]; 40 uM) | CMV-LACZ in Myotubes, signal relative to DMSO ([4]; 0.5 uM) | CMV-LACZ in Myotubes, signal relative to DMSO ([4]; 1 uM) | further results |
| --- | --- | --- | --- | --- | --- | --- | --- | --- | --- | --- | --- | --- | --- | --- | --- | --- | --- | --- | --- | --- | --- |
| OC(c1nc2ccc(F)cc2[nH]1)C(O)c1nc2ccc(F)cc2[nH]1 (stereo not drawn) [MLS001182368-01] | 1.081 | 1.215 | 0.914 | 0.8945 | 1.001 | 0.8952 | 1.044 | 1.0792 | 1.2117 | 1.02 | 0.9097 | 0.9193 | 0.9571 | 0.8783 | 1.0528 | 0.9225 | 1.2322 | 1.1615 | 0.8667 | 1.0619 | CMV-LACZ in Myotubes, signal relative to DMSO ([4]; 5 uM): 0.8931; CMV-LACZ in Myotubes, signal relative to DMSO ([4]; 10 uM): 0.8690; CMV-LACZ in Myotubes, signal relative to DMSO ([4]; 20 uM): 0.9953; CMV-LACZ in Myotubes, signal relative to DMSO ([4]; 40 uM): 1.0318 |
| Cc1ccccc1-n1c(Cc2cccs2)n[nH]c1=S [MLS000568234-01] | 1.094 | 1.032 | 1.136 | 1.373 | 1.106 | 1.011 | 1.08 | 1.167 | 0.9642 | 1.09 | 0.8694 | 0.9705 | 0.9556 | 0.9372 | 0.9043 | 0.9894 | 0.8819 | 0.7322 | 1.3844 | 1.2622 | CMV-LACZ in Myotubes, signal relative to DMSO ([4]; 5 uM): 1.0764; CMV-LACZ in Myotubes, signal relative to DMSO ([4]; 10 uM): 0.9074; CMV-LACZ in Myotubes, signal relative to DMSO ([4]; 20 uM): 0.9918; CMV-LACZ in Myotubes, signal relative to DMSO ([4]; 40 uM): 0.9141 |
| CC(C)(C)Nc1nc(-c2ccc3c(c2)CCN3C(=O)C2CC2)cs1 [MLS001216939-01] | 1.123 | 1.2827 | 1.111 | 0.9828 | 0.8633 | 0.7865 | 1.193 | 1.185 | 1.07 | 1.06 | 0.8529 | 0.4743 | 1.0991 | 1.1134 | 1.0913 | 0.9452 | 1.1863 | 1.0644 | 1.0311 | 0.9748 | CMV-LACZ in Myotubes, signal relative to DMSO ([4]; 5 uM): 1.1826; CMV-LACZ in Myotubes, signal relative to DMSO ([4]; 10 uM): 1.2568; CMV-LACZ in Myotubes, signal relative to DMSO ([4]; 20 uM): 1.1518; CMV-LACZ in Myotubes, signal relative to DMSO ([4]; 40 uM): 0.9659 |
